In ChEMBL document CHEMBL1201862, “PubChem BioAssay data set” (2004):
The source made the active and inactive calls.

Legend:
Assay type in all cases: functional
[1] = biological target: T1, Protein RecA (Mycobacterium tuberculosis, UniProt P9WHJ3); experiment: Fluorescence Cell-Free Homogeneous Dose Retest to Identify Inhibitors of RecA-Intein Splicing Activity. [Related pubchem assays (depositor defined):AID2097, AID2223, AID489010, AID492950]
T1 sequence (P9WHJ3 whole entry): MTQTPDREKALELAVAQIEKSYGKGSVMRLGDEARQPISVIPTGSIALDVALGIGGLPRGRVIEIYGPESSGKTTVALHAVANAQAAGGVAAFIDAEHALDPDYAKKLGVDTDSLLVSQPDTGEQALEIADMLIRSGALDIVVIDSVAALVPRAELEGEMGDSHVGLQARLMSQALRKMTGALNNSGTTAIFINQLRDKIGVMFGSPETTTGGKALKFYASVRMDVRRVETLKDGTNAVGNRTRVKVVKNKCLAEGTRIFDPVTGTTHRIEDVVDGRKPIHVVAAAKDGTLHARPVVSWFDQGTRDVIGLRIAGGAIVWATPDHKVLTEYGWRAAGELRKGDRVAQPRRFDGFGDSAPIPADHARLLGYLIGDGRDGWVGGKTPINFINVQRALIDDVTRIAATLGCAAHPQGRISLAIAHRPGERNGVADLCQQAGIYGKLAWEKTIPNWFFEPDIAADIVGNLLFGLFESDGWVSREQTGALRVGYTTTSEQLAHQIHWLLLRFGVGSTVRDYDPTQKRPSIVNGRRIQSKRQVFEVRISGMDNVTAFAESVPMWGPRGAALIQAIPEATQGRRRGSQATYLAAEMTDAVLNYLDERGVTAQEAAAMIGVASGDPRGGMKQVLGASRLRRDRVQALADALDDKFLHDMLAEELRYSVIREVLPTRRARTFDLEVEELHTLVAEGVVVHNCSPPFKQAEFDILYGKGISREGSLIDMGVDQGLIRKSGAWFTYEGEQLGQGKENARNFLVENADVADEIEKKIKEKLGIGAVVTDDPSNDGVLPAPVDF

[2] = biological target: T2, Replicative DNA helicase DnaB (Mycobacterium tuberculosis, UniProt P9WMR3); experiment: DnaB intein splicing inhibitors, dose response, biochemical, cell-free fluorescence (AID 449749)
T2 sequence (P9WMR3 whole entry): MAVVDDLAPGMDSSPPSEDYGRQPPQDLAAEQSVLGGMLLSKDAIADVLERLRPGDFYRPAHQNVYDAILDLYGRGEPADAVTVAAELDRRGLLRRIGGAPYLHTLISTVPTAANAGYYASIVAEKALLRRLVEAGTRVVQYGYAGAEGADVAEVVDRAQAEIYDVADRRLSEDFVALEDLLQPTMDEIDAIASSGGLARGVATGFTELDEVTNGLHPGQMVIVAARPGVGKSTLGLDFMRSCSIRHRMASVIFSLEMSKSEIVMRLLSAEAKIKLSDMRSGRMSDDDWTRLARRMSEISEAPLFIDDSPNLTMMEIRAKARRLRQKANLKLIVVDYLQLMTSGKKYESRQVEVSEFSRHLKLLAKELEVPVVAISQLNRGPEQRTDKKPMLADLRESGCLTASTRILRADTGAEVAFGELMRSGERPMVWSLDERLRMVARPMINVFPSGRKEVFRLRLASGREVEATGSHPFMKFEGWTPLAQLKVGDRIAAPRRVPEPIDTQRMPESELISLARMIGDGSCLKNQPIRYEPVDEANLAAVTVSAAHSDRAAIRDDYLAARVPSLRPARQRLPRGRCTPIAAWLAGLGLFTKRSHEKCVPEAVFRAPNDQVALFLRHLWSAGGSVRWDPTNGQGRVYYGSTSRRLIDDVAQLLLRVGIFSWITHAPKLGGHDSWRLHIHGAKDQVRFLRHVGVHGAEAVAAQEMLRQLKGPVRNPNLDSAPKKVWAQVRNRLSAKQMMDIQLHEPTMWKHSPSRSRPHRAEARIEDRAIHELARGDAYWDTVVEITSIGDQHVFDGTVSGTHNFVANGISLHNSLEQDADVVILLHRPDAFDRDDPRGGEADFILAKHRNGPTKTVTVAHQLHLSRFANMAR

[3] = biological target: T3, Apoptotic protease-activating factor 1 (Homo sapiens, UniProt O14727)
T3 sequence (O14727 whole entry): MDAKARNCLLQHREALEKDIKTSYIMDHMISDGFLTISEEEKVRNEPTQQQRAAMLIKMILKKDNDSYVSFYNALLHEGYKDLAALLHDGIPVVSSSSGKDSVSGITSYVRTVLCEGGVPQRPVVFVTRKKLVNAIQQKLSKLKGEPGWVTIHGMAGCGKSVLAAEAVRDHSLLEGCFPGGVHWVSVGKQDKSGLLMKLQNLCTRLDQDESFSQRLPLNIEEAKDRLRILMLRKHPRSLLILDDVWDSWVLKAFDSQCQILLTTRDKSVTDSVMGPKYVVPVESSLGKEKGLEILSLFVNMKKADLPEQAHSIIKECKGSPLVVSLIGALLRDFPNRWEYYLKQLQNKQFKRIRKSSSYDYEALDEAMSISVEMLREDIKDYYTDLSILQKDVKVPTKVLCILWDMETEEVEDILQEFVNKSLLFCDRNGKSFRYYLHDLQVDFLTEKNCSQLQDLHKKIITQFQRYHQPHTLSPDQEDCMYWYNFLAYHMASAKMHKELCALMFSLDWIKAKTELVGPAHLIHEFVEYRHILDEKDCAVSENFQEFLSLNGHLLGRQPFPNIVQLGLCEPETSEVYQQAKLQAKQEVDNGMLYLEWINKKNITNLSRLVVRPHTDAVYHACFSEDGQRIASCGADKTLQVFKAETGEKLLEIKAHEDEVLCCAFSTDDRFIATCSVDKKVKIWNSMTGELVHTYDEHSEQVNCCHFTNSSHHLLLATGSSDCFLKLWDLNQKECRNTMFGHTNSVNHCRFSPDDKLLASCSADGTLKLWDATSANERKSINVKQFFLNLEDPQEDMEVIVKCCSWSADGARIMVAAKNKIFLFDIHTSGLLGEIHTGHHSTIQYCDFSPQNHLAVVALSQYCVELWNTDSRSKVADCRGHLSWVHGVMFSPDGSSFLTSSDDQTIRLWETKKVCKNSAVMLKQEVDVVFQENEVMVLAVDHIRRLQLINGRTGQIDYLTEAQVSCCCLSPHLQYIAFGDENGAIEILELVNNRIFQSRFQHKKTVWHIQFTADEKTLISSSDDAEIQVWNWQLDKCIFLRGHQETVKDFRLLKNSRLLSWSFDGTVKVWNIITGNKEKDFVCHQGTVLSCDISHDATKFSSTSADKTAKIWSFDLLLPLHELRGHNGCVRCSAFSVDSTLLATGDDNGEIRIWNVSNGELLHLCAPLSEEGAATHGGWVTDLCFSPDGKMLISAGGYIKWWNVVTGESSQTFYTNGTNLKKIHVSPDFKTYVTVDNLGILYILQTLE

CC(C)=CCC1=C(OCC(=O)O)C(=O)c2ccccc2C1=O
EC50 [1]: 7.75 µM (active)
AC50 [2]: 9.19 µM (active)
IC50 [3]: 6.11 µM (active)

Cc1[nH][nH]c(=O)c1C(c1c(C)[nH][nH]c1=O)c1cn(Cc2ccccc2Cl)c2ccccc12
EC50 [1]: 0.299 µM (active)
AC50 [2]: 0.242 µM (active)

Cc1cccc(NC2=C(NC(=O)c3ccccc3)C(=O)c3ccccc3C2=O)c1
EC50 [1]: 1.71 µM (active)
AC50 [2]: 3.96 µM (active)
IC50 [3]: 13.4 µM (active)
